What all share (type): in vivo
Data set [1] can be described thus: Rectal insulin suppositories (Recipes 21-34), glucose response. Particulars: rectal suppository 6 I.U. insulin. The procedure: |Enamine derivative (I) | As indicated in | Table 12 […] The above components were used to prepare rectal suppositories in accordance with established pharmaceutical practice. The suppositories were administered to rabbits and dogs by rectal route. […] The test was conducted by the glucose oxidase method.

Data set [2] in a line: Rectal insulin suppositories (Recipes 35-41), glucose response. Particulars: rabbit 2.5-3kg; rectal suppository 6 I.U. insulin; enamine derivative 0.025g (5%). An excerpt:
These suppositories were rectally administered to rabbits (R, 2.5-3kg) and dogs (D, 12-13kg).

Data set [3] can be described thus: Rectal suppositories of CET-Na with enamine derivative, concentration in blood. Particulars: dog. As for the experimental part:
These suppositories were rectally administered to dogs and the absorbabilities of the active components were investigated by measuring the blood concentrations.
The blood concentrations were measured in conformity with the biological assay method in the Antibiotic Standard of Japan. The cup method was employed with Sarcina lutea for penicillins and Bacillus subtilis for cephalosporins.

A short description of data set [4]: Rectal suppositories of AB-PC-Na with enamine derivative, concentration in blood. The conditions noted are these: AB-PC-Na 75mg, dog. As for the experimental part:
These suppositories were rectally administered to dogs and the absorbabilities of the active components were investigated by measuring the blood concentrations. The blood concentrations were measured in conformity with the biological assay method in the Antibiotic Standard of Japan. The cup method was employed with Sarcina lutea for penicillins and Bacillus subtilis for cephalosporins.

The mark [5] stands for this setting: CET-Na 500mg, enamine derivative 150mg (10%), base Witepsol H-15 850mg.
Setting [6] is: CET-Na 75mg, enamine derivative 60mg (5%), base Witepsol H-15 1065mg.
Where [7] appears, read: enamine derivative 60mg (5%), base Witepsol H-15 1065mg.
The mark [8] stands for this setting: enamine derivative 120mg (10%), base SB-W 1005mg.
Where [9] appears, read: enamine derivative 120mg (10%), base Witepsol H-15 1005mg.

In the case of `CCOC(=O)C=C(C)NC(C)C(=O)[O-].[Na+]` (racemic) [Compound 18, N-(1-Methyl-2-ethoxycarbonylvinyl)-DL-alanine sodium salt], in data set [1] (rabbit, enamine derivative 1%), the “Time course: Lowest level” value is 45 to 60 min, the “Time course: Onset” value is 30 min and the “Time course: Return to pre-medication level” value (shortened to “Time course: Return”) was 180 min.

Take `CCOC(=O)C=C(C)NC(C(=O)[O-])c1ccccc1.[Na+]` (racemic) [Compound 24, N-(1-Methyl-2-ethoxycarbonylvinyl)-DL-phenylglycine sodium salt]: in data set [1] (rabbit, enamine derivative 1%), the “Time course: Lowest level” value was 30 to 60 min, the “Time course: Onset” value worked out at 15 min and the “Time course: Return” value turned out to be 180 min.

As to `CCOC(=O)C(C)OC(=O)C=C(C)NC(C)C(=O)[O-].[Na+]` (racemic) [Compound 33, N-[1-Methyl-2-(1-ethoxycarbonyl-ethoxycarbonyl)vinyl]-DL-alanine sodium salt], in data set [2], the “Blood glucose response (6 I.U.)” value is on record as 45-55%, the “Time course: Lowest level” value was in the range of 45 to 60 min, the “Time course: Onset” value is 15 min and the “Time course: Return” value was found to be 150 min.

On to `CCOC(=O)C=C(C)N[C@@H](C)C(=O)[O-].[Na+]` [Compound 19, N-(1-Methyl-2-ethoxycarbonylvinyl)-L-alanine sodium salt], for which, in data set [1] (rabbit, enamine derivative 1%), the “Time course: Lowest level” value is 45 to 60 min, the “Time course: Onset” value is 30 min and the “Time course: Return” value came out at 180 min.

Consider `CCOC(=O)C=C(C)N[C@H](C(=O)[O-])[C@@H](C)CC.[Na+]` [Compound 20, N-(1-Methyl-2-ethoxycarbonylvinyl)-L-isoleucine sodium salt], for which, in data set [1] (dog, enamine derivative 2%), the “Blood glucose response (6 I.U.)” value is given as 25-35%, the “Time course: Lowest level” value came out at 120 min, the “Time course: Onset” value is 60 to 90 min and the “Time course: Return” value lay within 180 to 240 min. In data set [3] (setting [5]), the “Concentration in blood, 15 min.” value is 9000 ng/mL; the “Concentration in blood, 30 min.” value came to 6230 ng/mL; the “Concentration in blood, 60 min.” value turned out to be 2910 ng/mL; the “Concentration in blood, 120 min.” value came out at 1000 ng/mL.

With `CCOC(=O)C=C(C)N[C@@H](CC(C)C)C(=O)[O-].[Na+]` [Compound 21, N-(1-Methyl-2-ethoxycarbonylvinyl)-L-leucine sodium salt], in data set [1] (dog, enamine derivative 1%), the “Blood glucose response (6 I.U.)” value is listed as 35-45%, the “Time course: Lowest level” value fell in the range of 60 to 90 min, the “Time course: Onset” value is 30 min and the “Time course: Return” value was 180 min.

Consider `CCOC(=O)C=C(C)N[C@H](C(=O)[O-])[C@@H](C)O.[Na+]` [Compound 22, N-(1-Methyl-2-ethoxycarbonylvinyl)-L-threonine sodium salt], for which, in data set [1] (rabbit, enamine derivative 5%), the “Time course: Lowest level” value was 45 to 75 min, the “Time course: Onset” value turned out to be 30 min and the “Time course: Return” value stood at 180 min. Also, in data set [3] (setting [6]), the “Concentration in blood, 15 min.” value is 750 ng/mL; the “Concentration in blood, 30 min.” value is 570 ng/mL; the “Concentration in blood, 60 min.” value was 310 ng/mL.

`CCOC(=O)C=C(C)N[C@@H](CCSC)C(=O)[O-].[Na+]` [Compound 23, N-(1-Methyl-2-ethoxycarbonylvinyl)-L-methionine sodium salt]: in data set [1] (rabbit, enamine derivative 10%), the “Time course: Lowest level” value was in the range of 60 to 90 min, the “Time course: Onset” value was determined as 30 min and the “Time course: Return” value was 180 min. In addition, in data set [4] (setting [7]), the “Concentration in blood, 15 min.” value was 520 ng/mL; the “Concentration in blood, 30 min.” value was 340 ng/mL; the “Concentration in blood, 60 min.” value was 180 ng/mL; the “Concentration in blood, 120 min.” value was 80 ng/mL.

`CCOC(=O)C=C(C)N[C@@H](Cc1ccccc1)C(=O)[O-].[Na+]` [Compound 25, N-(1-Methyl-2-ethoxycarbonylvinyl)-L-phenylalanine sodium salt]: in data set [1] (rabbit, enamine derivative 1%), the “Time course: Lowest level” value lay within 45 to 90 min, the “Time course: Onset” value was 30 min and the “Time course: Return” value came to 180 min.

Take `CCOC(=O)C=C(C)N[C@H](C(=O)[O-])C(C)C.[Na+]` [Compound 26, N-(1-Methyl-2-ethoxycarbonylvinyl)-L-valine sodium salt]: in data set [1] (rabbit, enamine derivative 10%), the “Time course: Lowest level” value is 60 to 90 min, the “Time course: Onset” value is 30 min and the “Time course: Return” value turned out to be 180 min.

In the case of `CCOC(=O)C=C(C)N[C@@H](Cc1c[nH]c2ccccc12)C(=O)[O-].[Na+]` [Compound 27, α-N-(1-Methyl-2-ethoxycarbonylvinyl)-L-tryptophan sodium salt], in data set [1] (rabbit, enamine derivative 10%), the “Blood glucose response (6 I.U.)” value stood at 30%, the “Time course: Lowest level” value was 60 to 90 min, the “Time course: Onset” value amounted to 30 min and the “Time course: Return” value came out at 180 min. Moreover, in data set [4] (setting [8]), the “Concentration in blood, 15 min.” value was 1600 ng/mL; the “Concentration in blood, 30 min.” value is 1500 ng/mL; the “Concentration in blood, 60 min.” value turned out to be 740 ng/mL; the “Concentration in blood, 120 min.” value came out at 400 ng/mL.

As for `CCOC(=O)C=C(C)N[C@@H](Cc1c[nH]cn1)C(=O)[O-].[Na+]` [Compound 28, α-N-(1-Methyl-2-ethoxycarbonylvinyl)-L-histidine sodium salt], in data set [1] (rabbit, enamine derivative 10%), the “Blood glucose response (6 I.U.)” value is 30%, the “Time course: Lowest level” value lay in the range of 60 to 90 min, the “Time course: Onset” value worked out at 30 min and the “Time course: Return” value came to 180 min.

`CCOC(=O)C=C(C)N[C@@H](CCCNC(=N)N)C(=O)O` [Compound 29, α-N-(1-Methyl-2-ethoxycarbonylvinyl)-L-arginine]: in data set [1] (rabbit, enamine derivative 5%), the “Blood glucose response (6 I.U.)” value is reported as 40-50%, the “Time course: Lowest level” value lay within 60 to 90 min, the “Time course: Onset” value is 15 min and the “Time course: Return” value is 210 min. In data set [4] (setting [8]), the “Concentration in blood, 15 min.” value is 500 ng/mL; the “Concentration in blood, 30 min.” value is 530 ng/mL; the “Concentration in blood, 60 min.” value was found to be 610 ng/mL; the “Concentration in blood, 120 min.” value amounted to 410 ng/mL.

Turning to `CCOC(=O)C=C(C)NCCCCCCCCCCC(=O)[O-].[Na+]` [Compound 30, N-(1-Methyl-2-ethoxycarbonylvinyl)-11-aminoundecanoic acid sodium salt], in data set [1] (rabbit, enamine derivative 10%), the “Time course: Lowest level” value fell in the range of 60 to 90 min, the “Time course: Onset” value was found to be 30 min and the “Time course: Return” value amounted to 180 min.

Turning to `CCOC(=O)C=C(C)N[C@@H](CO)C(=O)[O-].[Na+]` [Compound 31, N-(1-Methyl-2-ethoxycarbonylvinyl)-L-serine sodium salt], in data set [1] (rabbit, enamine derivative 10%), the “Time course: Lowest level” value lay within 60 to 90 min, the “Time course: Onset” value turned out to be 30 min and the “Time course: Return” value was 180 min. In data set [4] (setting [7]), the “Concentration in blood, 15 min.” value worked out at 700 ng/mL; the “Concentration in blood, 30 min.” value was determined as 380 ng/mL; the “Concentration in blood, 60 min.” value was 240 ng/mL; the “Concentration in blood, 120 min.” value came out at 90 ng/mL.

As to `CC(=CC(=O)OC(C)C(=O)O)N[C@@H](CCCNC(=N)N)C(=O)O` (stereo partly drawn) [Compound 35, α-N-(1-Methyl-2-(1-carboxy-ethoxycarbonyl)vinyl]-L-arginine], in data set [2], the “Blood glucose response (6 I.U.)” value is 20-30%, the “Time course: Lowest level” value was 30 to 60 min, the “Time course: Onset” value was 15 min and the “Time course: Return” value turned out to be 120 min.

As to `CC(=CC(=O)NCCO)N[C@@H](Cc1ccccc1)C(=O)[O-].[Na+]` [Compound 36, N-[1-Methyl-2-(2-hydroxyethylcarbamoyl)vinyl]-L-phenylalanine sodium salt], in data set [2], the “Blood glucose response (6 I.U.)” value was 20-30%, the “Time course: Lowest level” value was 30 to 60 min, the “Time course: Onset” value stood at 15 min and the “Time course: Return” value is 120 min. Besides, in data set [4] (setting [9]), the “Concentration in blood, 15 min.” value was determined as 1450 ng/mL; the “Concentration in blood, 30 min.” value is 1530 ng/mL; the “Concentration in blood, 60 min.” value came out at 800 ng/mL; the “Concentration in blood, 120 min.” value is 400 ng/mL.

For the compound `CC(=CC(=O)OCC(O)CO)NCC(=O)[O-].[Na+]` (stereo not drawn) [Compound 38, N-[1-Methyl-2-(2,3-dihydroxypropoxycarbonyl)vinyl]glycine sodium salt], in data set [2], the “Blood glucose response (6 I.U.)” value was 45-55%, the “Time course: Lowest level” value fell in the range of 45 to 60 min, the “Time course: Onset” value turned out to be 15 min and the “Time course: Return” value was 150 min.

The values are drawn from patent US4277465A, “Adjuvant for promoting absorption of therapeutically active substances through the digestive tract” (Kyoto Yakuhin Kogyo Kabushiki Kaisha, priority 1978, dated 1981).
